How the values were obtained:
[1] = target: T1, rIDUA (human recombinant α-L-iduronidase, Aldurazyme) (Homo sapiens, UniProt P35475); assay: fluorogenic 4-MU-IdoA activity assay; assay type: biochemical; details: pH 4.5, 60 min incubation, competition with 4-MU-IdoA; covalent; read-out: apparent IC50
T1 construct: gene IDUA; therapeutic recombinant enzyme (Aldurazyme, Genzyme), secreted lysosomal glycoprotein; chymotryptic active-site peptide Asn297-Leu303 with nucleophile Glu299
T1 sequence (P35475 28-653): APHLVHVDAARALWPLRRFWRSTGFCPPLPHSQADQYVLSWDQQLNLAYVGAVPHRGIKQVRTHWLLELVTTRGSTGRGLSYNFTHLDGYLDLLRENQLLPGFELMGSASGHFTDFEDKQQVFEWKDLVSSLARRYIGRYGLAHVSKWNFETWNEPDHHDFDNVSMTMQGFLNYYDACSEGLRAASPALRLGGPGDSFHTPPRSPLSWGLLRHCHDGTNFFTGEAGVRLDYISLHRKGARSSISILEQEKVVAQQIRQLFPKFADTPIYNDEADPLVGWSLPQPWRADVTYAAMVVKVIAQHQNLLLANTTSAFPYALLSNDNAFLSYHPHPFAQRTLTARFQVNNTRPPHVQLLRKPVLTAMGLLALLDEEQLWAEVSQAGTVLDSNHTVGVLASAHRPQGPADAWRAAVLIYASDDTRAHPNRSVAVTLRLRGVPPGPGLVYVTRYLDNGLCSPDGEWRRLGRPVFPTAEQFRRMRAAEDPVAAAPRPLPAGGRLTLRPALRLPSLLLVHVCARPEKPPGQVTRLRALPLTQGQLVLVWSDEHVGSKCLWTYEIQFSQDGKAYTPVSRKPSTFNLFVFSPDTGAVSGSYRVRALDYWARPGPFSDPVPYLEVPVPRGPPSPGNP

[2] = target: T1, rIDUA (human recombinant α-L-iduronidase, Aldurazyme); assay: biochemical; parameters: residual rIDUA activity after 1 h preincubation, fluorogenic 4-MU-alpha-L-IdoA substrate, pH 4.5, apparent IC50
Method: Apparent IC50 values of inhibitors and ABPs on recombinant human iduronidase and cell lysates Inhibitors and ABPs were diluted at various concentrations in 12.5 µL assay buffer and incubated with 12.5 µL rIDUA (5.8 ng, or 70 fmol) or fibroblast lysates (50 µg protein), both diluted in assay buffer, at 37°C for 1 h (rIDUA) or 4 h (fibroblasts lysates), at 1% (v/v) DMSO concentration. This was followed by iduronidase activity assay (30 min incubation time) described in the previous section. The detected 4-MU fluorescence at each concentration for each compound were normalized to the fluorescence from the control sample without inhibitor, and data were fitted with [inhibitor] vs response – variable slope (four parameters) function in Graphpad Prism 7.0 software to obtain apparent IC50 values. Iduronidase activity assay using 4-MU-α-L-IdoA as substrate Samples containing enzyme were diluted in assay buffer (150 mM citrate/Na2HPO4, pH 4.5, supplemented with 0.1% (v/v) Triton X-100, 0.15 M NaCl, 33 mM CaCl2, 33 mM MgCl2), and load onto a black flat-bottom 96-well plate (Greiner) in triplicates of 25 µL per well. Negative controls (blank) were prepared by substituting enzyme samples with buffer. For reaction, samples were added with 25 µL of 360 µM 4-MU-α-L-IdoA1 (prepared in assay buffer supplemented with 0.1 % (w/v) bovine serum albumin (BSA)), and incubated at 37°C for 30 min to 4h. […]

## [N-]=[N+]=NCCCCCCCCN1[C@@H]2[C@@H](C(=O)O)[C@@H](O)[C@H](O)[C@@H](O)[C@@H]21 (stereo partly drawn) [compound 1, inhibitor 1]
[1]
  IC50: 40.6 ± 17 µM

## OC[C@H]1[C@@H](O)[C@H](O)[C@@H](O)[C@@H]2N[C@H]12 [compound 11, aziridine 11]
[2]
  IC50: > 100 µM

## [N-]=[N+]=NCCCCCCCCN1[C@@H]2[C@@H](CO)[C@@H](O)[C@H](O)[C@@H](O)[C@@H]21 (stereo partly drawn) [compound 12, alkyl aziridine 12]
[1]
  IC50: 12.2 ± 3.24 µM
